Assay results from patent US20110059114A1, “Compositions and Methods for the Treatment of Radioresistant Glioma Stem Cells” (DUKE UNIVERSITY, priority 2009, published 2011).

Tested on: Akt
Assay: Immunoblotting of phospho-Akt (S473)
Assay type: cell-based, human
Conditions: 2 μM DAPT
Description: FIG. 5 is a set of immunoblots and a graph illustrating that the Notch pathway regulates radioresistance of glioma stem cells via the Akt pathway and Mcl-1. T4302 CD 133+ cells were infected with control lentivirus or lentivirus directing expression of NICD2. Cells were pre-treated with or without 2 μM DPAT for 4 hours and exposed to 3-Gy radiation. Irradiated cells were collected at 24 or 48 hours after radiation, and sham-irradiated cells were collected at 48 hours after radiation. (A, C, D) Protein levels of phospho-Akt (S473), total Akt, PTEN, Bcl-2, Bcl-xL, Mcl-1, phospho-p53 (S15), total p53 and PUMA were assessed by immunoblotting. Actin was blotted as the loading control. (B) Control cells or NICD2-expressing cells were pre-treated with 10 μM PI3K inhibitor, LY294002, or 50 μM Akt inhibitor III (SH-6), for 4 hours prior to radiation exposure. Relative caspase 3/7 activities were determined at 48 hours after radiation exposure. #: p<0.001, by one-way ANOVA.
FIG. 13 is an immunoblot illustrating that LY294002 or Akt inhibitor III reduce Akt activity in glioma stem cells. T4302 glioma stem cells were treated with 10 μM LY294002 or 50 μM Akt inhibitor III (SH-6) in the presence or absence of radiation. Cells were collected for immunoblotting at 48 hours after radiation as described in FIG. 5.
Antibodies, DNA constructs, lentiviruses and other reagents. […]

## CC(NC(=O)Cc1cc(F)cc(F)c1)C(=O)NC(C(=O)OC(C)(C)C)c1ccccc1 [DAPT, N-[N-(3,5-Difluorophenacetyl-L-alanyl)]-S-phenylglycine t-Butyl Ester]
3-Gy radiation, control cells
  Akt activation (phospho-S473 Akt): reduced Akt activation
NICD2-expressing cells
  Akt activities increased by NICD2 expression: partially attenuated but not abolished
